The NIST ThermoML archive (doi:10.1021/je8003595)

Experiments:
[1] = 101 kPa, Liquid; for viscosity: Capillary tube (Ostwald / Ubbelohde) method
[2] = mn = molality of the nth substance listed, in mol/kg; settings: 101 kPa, Liquid, m2 = 0; for viscosity: Capillary tube (Ostwald / Ubbelohde) method

CC#N [acetonitrile]
[1]
Settings	mass density [kg/m3]	viscosity [mPa·s]
293.15 K	782.499	0.3081
298.15 K	777.099	0.2857
303.15 K	771.674	0.2642
308.15 K	766.217	0.2444
310.15 K	763.991	0.2374
313.15 K	760.702	0.2267

CC#N [acetonitrile] + O=C(Oc1ccccc1)c1ccccc1O
[2]
Settings	mass density [kg/m3]	viscosity [mPa·s]
293.15 K	782.499	0.3081
298.15 K	777.099	0.2857
303.15 K	771.674	0.2642
308.15 K	766.217	0.2444
310.15 K	763.991	0.2374
313.15 K	760.702	0.2267
